In patent US8221762B2, “Naturally processed measles virus peptides from class II HLA molecules” (priority 2004, dated 2012):

Experiments:
[1] = tested on: PBMC of subjects previously immunized with MMR-II vaccine; experiment: T cell proliferation assay ([3H]-thymidine, 4 days, SI>2 positive), Example 3; settings: for subjects with stimulation index greater than 2 (positive lymphoproliferative response) / stimulation index, median / stimulation index, range: 131 subjects (MV-P2 130, MV-F 43); for stimulation index, median / stimulation index, range: peptides 20 μg/ml, MV 50 pfu/ml, 4 days
Protocol: Briefly, study participants were enrolled as part of a larger stratified random sample study to assess associations between HLA genes and immune response to measles-mumps-rubella-II (MMR-II) vaccine in healthy, school-age children and young adults (ages 12 to 18 years). To evaluate the cellular responses to measles peptides, 131 subjects were used. In addition, a random subset of 43 individuals was tested for reactivity to a control measles fusion (F) peptide. All enrolled subjects had been previously immunized with two doses of MMR-II vaccine (Merck Research, West Point, Pa.) containing the attenuated Edmonston strain of MV. All but four of these participants were Caucasian and all subjects resided in a geographic area where no wild-type MV had circulated in the community during the subjects' lifetimes.
In brief, peripheral blood mononuclear cells (PBMC) were separated from heparinized blood by Ficoll-Hypaque (Sigma, St. Louis, Mo.) density gradient centrifugation and washed in RPMI 1640 medium (Celox Laboratories, Inc., St. Paul, Minn.) supplemented with 2 mM L-glutamine, 100 μg/ml streptomycin, 100 U/ml penicillin and 8% fetal calf serum (Life Technologies, Gaithersburg, Md.). Measles virus, MV-P1, MV-P2, and MV-F specific T cell responses were measures by proliferation of PBMC (2×10^5) incubated in RPMI-1640 medium, supplemented with 5% autologous sera, with live attenuated MV (50 pfu/ml, positive control) or synthetic peptides (20 μg/ml) compared to unstimulated cell control wells. Phytohemagglutinin (PHA, 5 μg/ml) was used to assess cell vitality. Only assays in which PBMC responded to PHA were accepted. T lymphocyte proliferation was measured after 4 days by [^3H]-tritiated thymidine uptake. Cells were then harvested onto glass fiber filters, using a 96-well harvesting system (Skatron Instruments, Norway). The amount of incorporated radioactivity was determined by a liquid scintillation counter (Packard Instrument Company, Boston, Mass.). We used six replicates of counts per minute (cpm) values for unstimulated cells, and three replicates each for T cells stimulated with peptides and live measles vaccine. For each subject, median cpm were calculated for unstimulated cells, as well as for cells stimulated with MV-P1, MV-P2, MV-F and measles. Results were then expressed as antigen-specific stimulation indices (SI), defined as the ratio of the median cpm of antigen-stimulated wells to the median cpm of unstimulated control wells. […] SI>2 was arbitrarily selected prior to the study as an indication of the presence of reactive peptide specific memory T cells, and SI<2 as an indicator of the lack of memory T lymphocytes to measles-derived peptides (Pauksen, et al., Bone Marrow Transplant 20:317-323, 1997).
Three outcomes were of primary interest: T cell proliferation (as measured by stimulation indices) induced separately by live MV, the MV-P1 peptide, and the MV-P2 peptide variant. Data were descriptively summarized using frequencies and percentages for all categorical variables, and medians and ranges for all continuous variables.

[2] = tested on: PBMC from subjects previously immunized with MMR-II vaccine; experiment: T cell proliferation assay ([3H]-thymidine, 3 days, SI cut point 3.0), Example 1; format: cell-based, human
Description: Study participants included ninety-five healthy residents of Olmsted County, Minn., aged 11 to 18 years. […] Mononuclear leukocytes were isolated by Ficoll-Hypaque (Amersham) density gradient centrifugation.
For descriptive analyses, we used medians and ranges for continuous variables and frequencies for categorical variables. We compared cpm for MV-stimulated, MV-P1-stimulated and MV-P2-stimulated cells with unstimulated cells using Wilcoxon signed rank tests. Associations between the continuously distributed stimulation indices for MV-P1, MV-P2 peptides, and MV were determined using Spearman rank correlation coefficients. Stimulation indices were subsequently dichotomized into positive or negative using a cut point of 3.0. We then compared MV positivity with MV-P1 and MV-P2 positivity using estimates of sensitivity.

[3] = tested on: PBMC of subjects previously immunized with MMR-II vaccine; experiment: IL-4 supernatant cytokine response (ELISA) to measles virus and synthetic measles peptides; format: cell-based, human; settings: for Median secretion value IL-4: stimulated minus control cells
Protocol: (§1) To evaluate the immunogenicity of measles-derived peptides, 281 of these subjects (age 12 to 18 years) were studied.
(§2) Cryopreserved PBMC were used to measure cytokine responses to measles-derived peptides. We thawed cryopreserved PBMC at a concentration of 1×10^7 cells/mL using standard protocol. The vials were rapidly thawed in a 37° C. water bath and then washed twice with 10× volume of complete RPMI 1640 media supplemented with 10% FCS at 700 rpm for 5 minutes. The final cell pellet was resuspended in complete RPMI media containing penicillin-streptomycin (100 U/mL) and supplemented with 5% normal human AB sera (Ervin Sci., Santa Ana, Calif.). For IFN-γ determination, thawed PBMC were cultured at a concentration of 2×10^5 in RPMI containing 5% normal human AB sera with or without measles peptides (10 μg/well) and MV (positive control) at a moi of 0.5 for 6 days. For IL-4 determination in cell culture supernatants, we cultured thawed PBMC at a concentration of 4×10^5 in RPMI media, supplemented with 5% normal human AB sera. Cells were cultured in the presence of 2 μg/mL of IL-4 receptor antibody (R&D Systems, Minneapolis, Minn.) (Ekerfelt, et al., J. Immunol. Methods 260:55-67, 2002) with or without synthetic measles-derived peptides (10 μg/well) and MV (positive control) at a moi of 0.1 for 6 days. Cell culture supernatants were collected in a volume of 150 μl/well for both IFN-γ and IL-4 and were frozen at […] until assayed. The culture supernatants were assayed using a standard ELISA protocol (OptiEtA Human IFN-γ and IL-4, PharMingen, San Diego, Calif.) at a dilution of 1:1 in PBS containing 10% FCS. ELISA plates (Immulon-4, DYNEX Technologies Inc, Chantilly, Va.) were coated with capture IFN-γ or IL-4 mAb and incubated overnight at 4° C. The antibody-coated plates were incubated with diluted supernatant samples for 2 hours at room temperature followed by incubation with biotinylated mouse anti-human IFN-γor IL-4 conjugated to avidin-horseradish peroxidase for 1 hour at room temperature. The absorbance of the product was read using a microplate reader (Molecular Devices, Sunnyvale, Calif.) at 450 nm. The IFN-γ and IL-4 concentration of test samples was calculated by reference to the standard curve. Unstimulated and MV-stimulated secretion measurements for IFN-γ were performed in triplicate, while all other secretion measurements for both IFN-γ and IL-4 were performed in duplicate. Individual-specific values were then summarized by taking means of the duplicate or triplicate values. Mean background levels of IFN-γ and IL-4 cytokine production in cultures not stimulated with measles peptides or MV was subtracted from the mean antigen-induced responses to produce “corrected” secretion values. Negative corrected values indicate that the unstimulated secretion levels were, on average, higher than the stimulated secretion levels.
(§3) Two criteria were established to define positive responses for secreted IFN-γ and IL-4 cytokines using ELISA.

[4] = tested on: PBMC of subjects previously immunized with MMR-II vaccine; experiment: IFN-γ supernatant cytokine response (ELISA) to measles virus and synthetic measles peptides; format: cell-based, human; settings: for Median secretion value IFN-γ: stimulated minus control cells
Protocol: as §1, §2, §3

[5] = 95 subjects, peptides 20 μg/ml, MV 50 PFU/well
[6] = 281 subjects, stimulated cells minus unstimulated cells

CC[C@H](C)[C@H](NC(=O)[C@H](CCC(=O)O)NC(=O)CNC(=O)CNC(=O)[C@H](CCC(=O)O)NC(=O)[C@H](C)NC(=O)[C@@H](NC(=O)[C@H](CCC(=O)O)NC(=O)[C@@H](NC(=O)[C@H](CC(=O)O)NC(=O)[C@H](CO)NC(=O)[C@H](C)N)C(C)C)[C@@H](C)O)C(=O)N[C@@H](Cc1c[nH]cn1)C(=O)N[C@@H](CCCCN)C(=O)N[C@@H](CC(C)C)C(=O)N[C@@H](CC(C)C)C(=O)N[C@@H](CCCNC(=N)N)C(=O)N[C@@H](CC(C)C)C(=O)N[C@@H](CCC(N)=O)C(=O)O [MV-P2]
subjects with stimulation index greater than 2 (positive lymphoproliferative response) [1]: 17% | stimulation index, median [1]: 1.2 | stimulation index, range [1]: 0.4-16.2 | MV-P1 responders who also responded to the peptide ([1]; among the 52 subjects who responded to the MV-P1 peptide): 23% | subjects with stimulation index greater than 3.0 (recognized) ([2]; 95 subjects): 5% | stimulation index, median [2, 5]: 1.2 | stimulation index, range [2, 5]: 0.5-16.2 | median cpm value, lymphoproliferative assay ([2]; 95 subjects, peptides 20 μg/ml, live attenuated MV 50 PFU/well, 3 days): 359 cpm

MV-F: randomly chosen 14 amino acid control peptide of the MV F protein (PLRHQATTASSTKP) [reference compound]
subjects with stimulation index greater than 2 (positive lymphoproliferative response) [1]: 11% | stimulation index, median [1]: 1 | stimulation index, range [1]: 0-3 | proliferation in immunized healthy subjects ([2]; irrelevant control peptide, data not shown): little or no proliferation

SAGKVSSTLASELG [MV-N]
IL-4 % Response (>10 pg/mL) ([3]; 281 subjects, peptides 10 μg/well, MV moi 0.1, 6 days): 23.1% | IL-4 Median level [3, 6]: 2.8 pg/mL | Median secretion value IL-4 ([3]; All other HLA-DRB1 alleles): -0.5 pg/mL | Median secretion value IL-4 ([3]; HLA-DRB1 allele *0101): 4.3 pg/mL | Median secretion value IL-4 ([3]; HLA-DRB1 allele *0102): 4.6 pg/mL | Median secretion value IL-4 ([3]; HLA-DRB1 allele *0103): 1.3 pg/mL | Median secretion value IL-4 ([3]; HLA-DRB1 allele *0301): 2.8 pg/mL | Median secretion value IL-4 ([3]; HLA-DRB1 allele *0401): 4.3 pg/mL | Median secretion value IL-4 ([3]; HLA-DRB1 allele *0402): -1.0 pg/mL | Median secretion value IL-4 ([3]; HLA-DRB1 allele *0404): 0.0 pg/mL | Median secretion value IL-4 ([3]; HLA-DRB1 allele *0407): 4.6 pg/mL | Median secretion value IL-4 ([3]; HLA-DRB1 allele *0701): 1.7 pg/mL | Median secretion value IL-4 ([3]; HLA-DRB1 allele *0801): 1.7 pg/mL | Median secretion value IL-4 ([3]; HLA-DRB1 allele *0901): -1.6 pg/mL | Median secretion value IL-4 ([3]; HLA-DRB1 allele *1001): 2.1 pg/mL | Median secretion value IL-4 ([3]; HLA-DRB1 allele *1101): 4.4 pg/mL | Median secretion value IL-4 ([3]; HLA-DRB1 allele *1103): 15.5 pg/mL | Median secretion value IL-4 ([3]; HLA-DRB1 allele *1104): 4.4 pg/mL | Median secretion value IL-4 ([3]; HLA-DRB1 allele *1201): 5.4 pg/mL | Median secretion value IL-4 ([3]; HLA-DRB1 allele *1301): 3.6 pg/mL | Median secretion value IL-4 ([3]; HLA-DRB1 allele *1302): 2.2 pg/mL | Median secretion value IL-4 ([3]; HLA-DRB1 allele *1303): -12.9 pg/mL | Median secretion value IL-4 ([3]; HLA-DRB1 allele *1401): 3.7 pg/mL | Median secretion value IL-4 ([3]; HLA-DRB1 allele *1501): 3.2 pg/mL | Median secretion value IL-4 ([3]; HLA-DRB1 allele *03011): 1.7 pg/mL | Median secretion value IL-4 ([3]; Overall (281)): 2.8 pg/mL | MV-P IL-4 responders in whom peptide-specific IL-4 responses were also detected ([3]; among the 54 subjects who responded to the MV-P peptide): half | MV IL-4 responders who also responded to the peptide ([3]; among the 143 subjects with IL-4 production from MV-stimulated PBMC): 28.7% | IFN-γ % Response (>20 pg/mL) ([4]; 281 subjects, peptides 10 μg/well, MV moi 0.5, 6 days): 15.3% | IFN-γ Median level [4, 6]: 1.9 pg/mL | Median secretion value IFN-γ ([4]; All other HLA-DRB1 alleles): 4.1 pg/mL | Median secretion value IFN-γ ([4]; HLA-DRB1 allele *0101): -1.8 pg/mL | Median secretion value IFN-γ ([4]; HLA-DRB1 allele *0102): 7.6 pg/mL | Median secretion value IFN-γ ([4]; HLA-DRB1 allele *0103): 2.4 pg/mL | Median secretion value IFN-γ ([4]; HLA-DRB1 allele *0301): 1.8 pg/mL | Median secretion value IFN-γ ([4]; HLA-DRB1 allele *0401): -0.7 pg/mL | Median secretion value IFN-γ ([4]; HLA-DRB1 allele *0402): 10.6 pg/mL | Median secretion value IFN-γ ([4]; HLA-DRB1 allele *0404): 2.8 pg/mL | Median secretion value IFN-γ ([4]; HLA-DRB1 allele *0407): 8.4 pg/mL | Median secretion value IFN-γ ([4]; HLA-DRB1 allele *0701): -1.1 pg/mL | Median secretion value IFN-γ ([4]; HLA-DRB1 allele *0801): 4.1 pg/mL | Median secretion value IFN-γ ([4]; HLA-DRB1 allele *0901): 3.1 pg/mL | Median secretion value IFN-γ ([4]; HLA-DRB1 allele *1001): -1.8 pg/mL | Median secretion value IFN-γ ([4]; HLA-DRB1 allele *1101): -4.4 pg/mL | Median secretion value IFN-γ ([4]; HLA-DRB1 allele *1103): 3.0 pg/mL | Median secretion value IFN-γ ([4]; HLA-DRB1 allele *1104): 3.1 pg/mL | Median secretion value IFN-γ ([4]; HLA-DRB1 allele *1201): -4.5 pg/mL | Median secretion value IFN-γ ([4]; HLA-DRB1 allele *1301): 2.2 pg/mL | Median secretion value IFN-γ ([4]; HLA-DRB1 allele *1302): -1.9 pg/mL | Median secretion value IFN-γ ([4]; HLA-DRB1 allele *1303): 13.1 pg/mL | Median secretion value IFN-γ ([4]; HLA-DRB1 allele *1401): 0.2 pg/mL | Median secretion value IFN-γ ([4]; HLA-DRB1 allele *1501): 4.1 pg/mL | Median secretion value IFN-γ ([4]; HLA-DRB1 allele *03011): 9.1 pg/mL | Median secretion value IFN-γ ([4]; Overall (281)): 1.9 pg/mL | MV-P IFN-γ responders who also produced IFN-γ to the peptide ([4]; among the 157 subjects who responded to the MV-P peptide): 21% | MV IFN-γ responders who also produced IFN-γ to the peptide ([4]; among the 185 subjects who responded to MV): 21.1%
